{
  "source": "patent US20260216067A1",
  "about": "“CARRIER AS A MULTIFUNCTIONAL SYSTEM” (LIFESOME THERAPEUTICS, S.L., priority 2022, published 2026)",
  "key": {"MDA MB 231": {"test_system": "MDA MB 231", "assay": "MTT cell viability test, MDA MB 231", "format": "cell-based", "conditions": "Homo sapiens, 72 h, up to 3 days, read-out: tumor cell viability", "method": "(§1) Ohmline nanoparticles were used to deliver docetaxel into different cancer cell lines. Cell viability was determined using tetrazolium salt reduction method (MTT)(CyQUANT™ MTT Cell Viability Assary, Thermo Fisher Scientific product V13154: https://www.thermofisher.com/order/catalog/product/V13154?ef_id=4431670897231bd9f4af0 436727d3335: G: s&s_kwcid=AL!3652!10!77240846955634!77240903742099&cid=bid_pca_i va_r01_co_cp1359_pjt0000_bid00000_Ose_bng_nt_pur_con&msclkid=4431670897231bd9f 4af0436727d3335 #/V13154), that reflects the number of viable cells. 6500 cells were seeded at day=0 in a 48 wells plate. Each well was filled up with the regular medium of the cancer cell. At day=1 the medium was aspirated and replaced with new media for each formulation to be tested. Cells were incubated up to 3 days.\n(§2) At the end of the incubation, the medium was aspirated and replaced with MTT solution at 0.5 mg/ml concentration. The plate was incubated at 37° C. by 30-45 min. After incubation the supernatant was aspirated, and the formed crystals dissolved with DMSO and gently agitation at room temperature protected from the light. 200 μl were transferred from each well to 96 well plates to measure the absorbance at 570 nm. (see FIGS. 8A, 8B and 8C).\n(§3) Ohmline control at 1 and 5 μM, in MLV formulation.\n(§4) DOX is docetaxel at 0,5 and 1 nM, in DMSO. […]"}, "PC3": {"test_system": "PC3", "assay": "MTT cell viability test, PC3", "format": "cell-based", "conditions": "Homo sapiens, PC-3, 72 h, up to 3 days, read-out: tumor cell viability", "method": "as §1, §2, §3, §4"}, "MCF7": {"test_system": "MCF7", "assay": "MTT cell viability test, MCF7", "format": "cell-based", "conditions": "Homo sapiens, 72 h, up to 3 days, read-out: tumor cell viability", "method": "as §1, §2, §3, §4"}, "MDA MB 435": {"test_system": "MDA MB 435", "assay": "MTT cell viability test, MDA MB 435", "format": "cell-based", "conditions": "Homo sapiens, 72 h, up to 3 days, read-out: tumor cell viability", "method": "as §1, §2, §3, §4"}, "SW620": {"test_system": "SW620", "assay": "MTT cell viability test, SW620", "format": "cell-based", "conditions": "Homo sapiens, SW-620, 72 h, up to 3 days, read-out: tumor cell viability", "method": "as §1, §2, §3, §4"}, "SK2 channel": {"molecular_target": "SK2 channel (Homo sapiens, UniProt Q9H2S1)", "sequence (Q9H2S1 whole entry)": "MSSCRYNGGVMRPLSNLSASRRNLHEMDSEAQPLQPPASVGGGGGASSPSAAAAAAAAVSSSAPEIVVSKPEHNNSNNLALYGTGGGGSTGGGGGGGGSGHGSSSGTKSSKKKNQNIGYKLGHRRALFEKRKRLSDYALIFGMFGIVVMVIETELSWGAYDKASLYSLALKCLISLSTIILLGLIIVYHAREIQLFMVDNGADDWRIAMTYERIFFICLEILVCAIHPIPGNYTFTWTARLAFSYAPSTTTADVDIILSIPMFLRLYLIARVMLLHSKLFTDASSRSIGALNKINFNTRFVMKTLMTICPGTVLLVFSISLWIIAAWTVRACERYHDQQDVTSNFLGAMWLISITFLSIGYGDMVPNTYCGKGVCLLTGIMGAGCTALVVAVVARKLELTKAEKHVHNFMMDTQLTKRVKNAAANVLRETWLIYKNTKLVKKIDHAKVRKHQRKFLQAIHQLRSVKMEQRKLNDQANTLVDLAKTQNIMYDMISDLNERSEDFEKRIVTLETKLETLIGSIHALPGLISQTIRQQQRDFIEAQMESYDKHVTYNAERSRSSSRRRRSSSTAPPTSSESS", "conditions": "cited from earlier work"}, "[1]": {"test_system": "SK3-expressing cancer cells", "conditions": "at 10 nM; cited from earlier work"}, "[2]": {"conditions": "Ames tests; cited from earlier work"}, "SKCa channels": {"test_system": "SKCa channels", "conditions": "cited from earlier work"}, "[3]": {"conditions": "cited from earlier work"}, "[4]": {"test_system": "receptors for lysophosphatidic acid (LPA)", "conditions": "cited from earlier work"}, "[5]": {"conditions": "cited from earlier work", "remark": "listed apart in the source"}, "[6]": {"conditions": "rodents; no observable tissue damage by a pathologist; cited from earlier work"}, "[7]": {"assay": "ADME studies, distribution", "format": "in vivo"}, "SK3 channel": {"molecular_target": "SK3 channel (Homo sapiens, UniProt Q9UGI6)", "conditions": "cited from earlier work"}, "[8]": {"molecular_target": "receptors for platelet activating factor (PAF) (Homo sapiens, UniProt P25105)", "sequence (P25105 whole entry)": "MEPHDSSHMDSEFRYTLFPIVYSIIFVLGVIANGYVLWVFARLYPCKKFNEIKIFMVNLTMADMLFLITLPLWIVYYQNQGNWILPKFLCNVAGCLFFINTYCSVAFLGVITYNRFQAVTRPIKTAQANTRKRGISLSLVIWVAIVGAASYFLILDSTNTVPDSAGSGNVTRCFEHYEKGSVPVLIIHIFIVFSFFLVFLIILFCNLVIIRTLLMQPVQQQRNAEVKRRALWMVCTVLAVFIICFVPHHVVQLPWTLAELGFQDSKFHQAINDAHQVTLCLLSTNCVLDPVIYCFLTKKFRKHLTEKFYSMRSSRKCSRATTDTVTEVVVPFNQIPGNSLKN", "conditions": "cited from earlier work"}, "IKCa/SK4 channel": {"molecular_target": "IKCa/SK4 channel (Homo sapiens, UniProt O15554)", "sequence (O15554 whole entry)": "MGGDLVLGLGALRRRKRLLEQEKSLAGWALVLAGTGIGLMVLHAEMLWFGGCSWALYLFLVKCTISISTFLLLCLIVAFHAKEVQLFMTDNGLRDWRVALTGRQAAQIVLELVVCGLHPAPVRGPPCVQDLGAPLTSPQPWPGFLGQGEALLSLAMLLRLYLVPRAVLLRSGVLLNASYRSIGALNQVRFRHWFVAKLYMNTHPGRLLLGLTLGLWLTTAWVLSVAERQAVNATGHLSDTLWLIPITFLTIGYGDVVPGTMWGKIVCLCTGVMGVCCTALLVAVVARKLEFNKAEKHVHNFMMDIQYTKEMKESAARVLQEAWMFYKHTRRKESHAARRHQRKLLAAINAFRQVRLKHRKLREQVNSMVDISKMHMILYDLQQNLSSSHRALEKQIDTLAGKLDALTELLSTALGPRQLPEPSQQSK", "conditions": "cited from earlier work"}, "protein kinase C (PKC)": {"test_system": "protein kinase C (PKC)", "conditions": "cited from earlier work"}, "[9]": {"conditions": "15 mg/Kg, up to 4 months treatment; cited from earlier work"}, "SK3-expressing cells": {"test_system": "SK3-expressing cells", "conditions": "in vivo; cited from earlier work"}, "[10]": {"test_system": "MDA-MB-231, HCT116, PC3, HaCaT and fibroblasts", "conditions": "25 μM for 48 h; cited from earlier work"}},
  "data": [
    {"smiles": "CC(=O)O[C@@]12CO[C@@H]1C[C@H](O)[C@@]1(C)C(=O)[C@H](O)C3=C(C)[C@@H](OC(=O)[C@H](O)[C@@H](NC(=O)OC(C)(C)C)c4ccccc4)C[C@@](O)([C@@H](OC(=O)c4ccccc4)[C@H]21)C3(C)C", "note": "[DOX, docetaxel]", "values": [
      {"measurement": "viability at 0.0005 µM", "setting": "MDA MB 231; DOX 0.5 nM in DMSO", "result": 72, "unit": "%"},
      {"measurement": "viability at 0.001 µM", "setting": "MDA MB 231; DOX 1 nM in DMSO", "result": 73, "unit": "%"},
      {"measurement": "viability at 0.0005 µM", "setting": "PC3; DOX 0.5 nM in DMSO", "result": 79, "unit": "%"},
      {"measurement": "viability at 0.001 µM", "setting": "PC3; DOX 1 nM in DMSO", "result": 73, "unit": "%"},
      {"measurement": "viability at 0.0005 µM", "setting": "MCF7; DOX 0.5 nM in DMSO", "result": 97, "unit": "%"},
      {"measurement": "viability at 0.001 µM", "setting": "MCF7; DOX 1 nM in DMSO", "result": 84, "unit": "%"},
      {"measurement": "viability at 0.0005 µM", "setting": "MDA MB 435; DOX 0.5 nM in DMSO", "result": 100, "unit": "%"},
      {"measurement": "viability at 0.001 µM", "setting": "MDA MB 435; DOX 1 nM in DMSO", "result": 69, "unit": "%"},
      {"measurement": "viability at 0.0005 µM", "setting": "SW620; DOX 0.5 nM in DMSO", "result": 99, "unit": "%"},
      {"measurement": "viability at 0.001 µM", "setting": "SW620; DOX 1 nM in DMSO", "result": 92, "unit": "%"}
    ]},
    {"smiles": "CCCCCCCCCCCCCCCCOCC(COC1OC(CO)C(OC2OC(CO)C(O)C(O)C2O)C(O)C1O)OC", "note": "(centres unmarked) [Ohmline, 1-O-hexadecyl-2-O-methyl-sn-glycero-3-lactose]", "values": [
      {"measurement": "effect on SK2 channel", "setting": "SK2 channel", "result": "only slightly but not significantly affected"},
      {"measurement": "reduction of migration of SK3-expressing cancer cells (efficiency)", "setting": "[1]", "result": 50, "unit": "%"},
      {"measurement": "mutagenic potential", "setting": "[2]", "result": "no mutagenic potential"},
      {"measurement": "displacement of apamin from SKCa channels", "setting": "SKCa channels", "result": "did not displace"},
      {"measurement": "micronuclei test effect", "setting": "[3]; at 100 μM", "result": "weak positive effect"},
      {"measurement": "in vitro concentrations with no toxicity or genotoxicity", "setting": "[3]; concluded from Ames and micronuclei tests", "result": "lower than 10 μM"},
      {"measurement": "effect on receptors for lysophosphatidic acid (LPA)", "setting": "[4]", "result": "no effect"},
      {"measurement": "persistence in brain", "setting": "[5]; after the end of administration", "result": "present in brain still two weeks after the end of its administration"},
      {"measurement": "incorporation in tissues", "setting": "[5]; stomach, intestine, kidney, liver, heart and brain", "result": "incorporated in the tissues tested"},
      {"measurement": "tolerance and safety", "setting": "[6]", "result": "good tolerance and an apparent safety"},
      {"measurement": "distribution to brain", "setting": "[7]", "result": "able to cross the blood brain barrier"},
      {"measurement": "IC50", "setting": "SK3 channel; SK3 channel", "result": 300, "unit": "nM"},
      {"measurement": "potency SK3 versus SK1 channel", "setting": "SK3 channel", "result": "greater for SK3 channel than for SK1 channel"},
      {"measurement": "effect on receptors for platelet activating factor (PAF)", "setting": "[8]", "result": "no effect"},
      {"measurement": "effect on IKCa/SK4 channel", "setting": "IKCa/SK4 channel", "result": "did not affect"},
      {"measurement": "effect on protein kinase C (PKC)", "setting": "protein kinase C (PKC)", "result": "no effect"},
      {"measurement": "acute toxicity", "setting": "[9]", "result": "no acute toxicity"},
      {"measurement": "metastasis development", "setting": "SK3-expressing cells", "result": "reduce not only bone metastasis development but also lung and lymph node metastases"}
    ]},
    {"smiles": "CCCCCCCCCCCCCCCCCCOCC(COP(=O)([O-])OCC[N+](C)(C)C)OC", "note": "(centres unmarked) [Edelfosine]", "values": [
      {"measurement": "cells still alive", "setting": "[10]", "result": "~0", "unit": "%"}
    ]}
  ]
}
